Measured values: patent US6559170B1, “Pyridine derivatives having fungicidal activity and processes to produce and use same” (Dow AgroScience LLC, priority 1999, dated 2003)

Legend:
[1] = system: Erysiphe graminis—ERYSGT; experiment: Powdery Mildew of Wheat, 1-day protectant whole plant test; format: in vivo; conditions: 100 ppm spray, 1-day protectant (1DP), wheat cultivar Monon
[2] = system: Puccinia recondita—PUCCRT; experiment: Brown rust of wheat, 1-day protectant whole plant test; format: in vivo; conditions: 100 ppm spray, 1-day protectant (1DP), wheat cultivar Monon
[3] = system: Phytophthora infestans—PHYTIN; format: in vivo; conditions: 100 ppm spray, 1-day protectant (1DP), tomatoes cultivar Rutgers
[4] = system: Leptosphaeria nodorum—LEPTNO; experiment: Glume blotch of wheat, 1-day protectant whole plant test; format: in vivo; conditions: 100 ppm spray, 1-day protectant (1DP), wheat cultivar Monon

Row | SMILES | ERYSGT percent control of the plant disease compared with untreated, inoculated plants [1] [%] | PUCCRT percent control of the plant disease compared with untreated, inoculated plants [2] [%] | PHYTIN percent control of the plant disease compared with untreated, inoculated plants [3] [%] | LEPTNO percent control of the plant disease compared with untreated, inoculated plants [4] [%] | melting point [°C]
1 | CNC(=O)C(=NOC)c1ccccc1COc1cccc(Sc2ccccc2C(F)(F)F)n1 [Compound 29] | 98 | 100 | 100 | 78 | –
2 | CNC(=O)C(=NOC)c1ccccc1COc1nc(Sc2ccc(C(F)(F)F)cc2)c(Cl)cc1Cl [Compound 13] | 98 | 98 | 0 | 0 | –
3 | CNC(=O)C(=NOC)c1ccccc1COc1ccc(Sc2ccccc2)cn1 [Compound 6, 2-Methoxyimino-N-methyl-[2-(5-phenylthio-2-pyridyloxy)methylphenyl]acetamide] | 80 | 98 | 90 | 98 | 95 to 96
4 | CNC(=O)C(=NOC)c1ccccc1COc1cccc(Sc2ccccc2)n1 [Compound 14] | 92 | 100 | 100 | 89 | –
5 | CNC(=O)C(=NOC)c1ccccc1COc1cccc(Sc2cccc3ccccc23)n1 [Compound 31] | 92 | 100 | 100 | 98 | –
6 | CNC(=O)C(=NOC)c1cccc(Cl)c1COc1ccc(Sc2cccc(C)c2)cn1 [Compound 7, 2-Methoxyimino-N-methyl-{3-chloro-2-[5-(3-methylphenyl)thio-2-pyridyloxy]methylphenyl}acetamide] | 98 | 100 | 100 | 98 | –
7 | CNC(=O)C(=NOC)c1ccccc1COc1nc(Sc2ccccc2)c(F)cc1F [Compound 32] | 77 | 100 | 100 | 98 | –
8 | CNC(=O)C(=NOC)c1ccccc1COc1cccc(Sc2ccc3ccccc3c2)n1 [Compound 21] | 92 | 100 | 100 | 98 | –
9 | CNC(=O)C(=NOC)c1ccccc1COc1nc(Sc2ccccc2)c(Cl)cc1Cl [Compound 10] | 99 | 100 | 96 | 98 | –
10 | CNC(=O)C(=NOC)c1ccccc1COc1cccc(Sc2cccc(C)c2)n1 [Compound 16] | 92 | 100 | 100 | 89 | –
11 | CNC(=O)C(=NOC)c1ccccc1COc1cccc(Sc2cccc(F)c2)n1 [Compound 30] | 98 | 100 | 100 | 98 | –
12 | CNC(=O)C(=NOC)c1cccc(Cl)c1COc1ccc(Sc2cccc(Cl)c2)cn1 [Compound 8, 2-Methoxyimino-N-methyl-{3-chloro-2-[5-(3-chlorophenyl)thio-2-pyridyloxy]methylphenyl}acetamide] | 98 | 98 | 100 | 98 | –
13 | CNC(=O)C(=NOC)c1ccccc1COc1cccc(Sc2ccccc2Cl)n1 [Compound 25] | 77 | 100 | 94 | 98 | –
14 | CNC(=O)C(=NOC)c1ccccc1COc1cccc(Sc2ccccc2F)n1 [Compound 27] | 77 | 100 | 100 | 98 | –
15 | CNC(=O)C(=NOC)c1ccccc1COc1cccc(Sc2ccc(Cl)cc2C)n1 [Compound 28] | 98 | 100 | 100 | 98 | –
16 | CCc1ccccc1Sc1cccc(OCc2ccccc2C(=NOC)C(=O)NC)n1 [Compound 33] | 92 | 100 | 100 | 98 | –
17 | CNC(=O)C(=NOC)c1ccccc1COc1cccc(Sc2cccc(Cl)c2)n1 [Compound 23] | 98 | 100 | 100 | 78 | –
18 | CNC(=O)C(=NOC)c1ccccc1COc1nc(Sc2ccc(Cl)cc2)c(Cl)cc1Cl [Compound 11] | 69 | 89 | 44 | 0 | –
19 | CNC(=O)C(=NOC)c1cccc(F)c1COc1cccc(Sc2ccccc2)n1 [Compound 34] | 85 | 100 | 94 | 98 | –
20 | CNC(=O)C(=NOC)c1ccccc1COc1cccc(Sc2ccc(Cl)cc2)n1 [Compound 20] | 92 | 100 | 100 | 98 | –
21 | CNC(=O)C(=NOC)c1ccccc1COc1cccc(Sc2ccc(Br)cc2)n1 [Compound 19] | 98 | 100 | 100 | 98 | –
22 | CNC(=O)C(=NOC)c1ccccc1COc1cccc(Sc2ccc(F)cc2)n1 [Compound 24] | 85 | 100 | 100 | 98 | –
23 | CNC(=O)C(=NOC)c1ccccc1COc1cccc(Sc2ccc(C)cc2)n1 [Compound 15] | 92 | 100 | 100 | 67 | –
24 | CNC(=O)C(=NOC)c1ccccc1COc1cccc(Sc2c(C)cccc2C)n1 [Compound 26] | 69 | 98 | 100 | 89 | –
25 | CNC(=O)C(=NOC)c1ccccc1COc1cccc(Sc2ccccc2C)n1 [Compound 17] | 92 | 100 | 100 | 98 | –
26 | CNC(=O)C(=NOC)c1ccccc1COc1cccc(Sc2cccc(C(F)(F)F)c2)n1 [Compound 22] | 92 | 98 | 100 | 78 | –
27 | CNC(=O)C(=NOC)c1ccccc1COc1ccc(C(F)(F)F)c(Sc2ccccc2)n1 [Compound 12] | 98 | 100 | 94 | 78 | –
